Test results taken from the NIST ThermoML archive (doi:10.1021/je8004062).
Numbers after ± are expanded uncertainties.

Experiment: mn = molality of the nth substance listed, in mol/kg
Conditions: 101 kPa, Liquid

[Cl-].[Na+] [sodium chloride] + O
Conditions | mass density, 293.15 K [kg/m3] | mass density, 298.15 K [kg/m3] | mass density, 303.15 K [kg/m3] | viscosity, 293.15 K [mPa·s] | viscosity, 298.15 K [mPa·s] | viscosity, 303.15 K [mPa·s]
m1 = 0.2076 | 1006.3 ± 0.1 | 1005.7 ± 0.1 | 1004 ± 0.1 | 1.012 ± 0.013 | 0.9082 ± 0.011 | 0.8115 ± 0.01
m1 = 0.3959 | – | 1013.2 ± 0.1 | 1011.7 ± 0.1 | 1.031 ± 0.013 | 0.9237 ± 0.011 | 0.8306 ± 0.01
m1 = 0.5997 | 1022 ± 0.1 | 1021.2 ± 0.1 | – | 1.054 ± 0.013 | 0.9408 ± 0.012 | 0.8489 ± 0.011
m1 = 0.7817 | 1029 ± 0.1 | 1028.1 ± 0.1 | 1026.4 ± 0.1 | 1.073 ± 0.013 | 0.9565 ± 0.012 | 0.8638 ± 0.011
m1 = 1.01 | 1037.6 ± 0.1 | – | 1034.8 ± 0.1 | 1.098 ± 0.013 | 0.9769 ± 0.012 | 0.8825 ± 0.011
m1 = 1.199 | 1044.5 ± 0.1 | 1043.4 ± 0.1 | 1041.4 ± 0.1 | 1.117 ± 0.014 | 0.9944 ± 0.012 | 0.898 ± 0.011
m1 = 1.502 | 1055.4 ± 0.2 | 1054.3 ± 0.2 | 1052.3 ± 0.1 | 1.151 ± 0.014 | 1.024 ± 0.013 | 0.9236 ± 0.011
m1 = 1.794 | 1065.7 ± 0.2 | 1064.5 ± 0.2 | 1062.5 ± 0.2 | 1.184 ± 0.014 | 1.054 ± 0.013 | 0.9496 ± 0.012
m1 = 2.004 | 1073.1 ± 0.2 | 1071.8 ± 0.2 | 1069.7 ± 0.2 | 1.208 ± 0.015 | 1.077 ± 0.013 | 0.9695 ± 0.012
m1 = 2.409 | 1086.9 ± 0.2 | 1085.5 ± 0.2 | 1083.4 ± 0.2 | 1.256 ± 0.015 | 1.124 ± 0.014 | 1.011 ± 0.013
m1 = 3 | 1106.5 ± 0.2 | 1105 ± 0.2 | 1102.7 ± 0.2 | 1.332 ± 0.016 | 1.2 ± 0.015 | 1.08 ± 0.013
m1 = 3.595 | 1125.5 ± 0.2 | 1123.8 ± 0.2 | 1121.4 ± 0.2 | 1.412 ± 0.017 | 1.288 ± 0.015 | 1.162 ± 0.014
m1 = 4.186 | 1143.5 ± 0.2 | 1141.7 ± 0.2 | 1139.2 ± 0.2 | 1.496 ± 0.018 | 1.385 ± 0.017 | 1.256 ± 0.015
m1 = 4.812 | 1162.1 ± 0.2 | 1160 ± 0.2 | 1157.5 ± 0.2 | 1.592 ± 0.019 | 1.502 ± 0.018 | 1.373 ± 0.016

[Cl-].[Cl-].[Cl-].[La+3] [lanthanum chloride] + O
Conditions | mass density, 293.15 K [kg/m3] | mass density, 298.15 K [kg/m3] | mass density, 303.15 K [kg/m3] | viscosity, 293.15 K [mPa·s] | viscosity, 298.15 K [mPa·s] | viscosity, 303.15 K [mPa·s]
m1 = 0.0996 | 1020.8 ± 0.1 | 1019.4 ± 0.1 | 1018 ± 0.1 | 1.068 ± 0.013 | 0.9503 ± 0.012 | 0.8517 ± 0.011
m1 = 0.1997 | 1043.7 ± 0.1 | 1042.1 ± 0.1 | 1040.4 ± 0.1 | 1.109 ± 0.013 | 0.9881 ± 0.012 | 0.8863 ± 0.011
m1 = 0.2997 | 1065.6 ± 0.2 | 1063.8 ± 0.2 | 1062 ± 0.2 | 1.176 ± 0.014 | 1.049 ± 0.013 | 0.9414 ± 0.012
m1 = 0.3994 | 1086.9 ± 0.2 | 1085 ± 0.2 | 1083.2 ± 0.2 | 1.255 ± 0.015 | 1.12 ± 0.014 | 1.006 ± 0.012
m1 = 0.4984 | 1107.7 ± 0.2 | 1105.8 ± 0.2 | 1103.9 ± 0.2 | 1.34 ± 0.016 | 1.196 ± 0.015 | 1.075 ± 0.013
m1 = 0.6 | 1128.9 ± 0.2 | 1126.9 ± 0.2 | 1125 ± 0.2 | 1.432 ± 0.017 | 1.279 ± 0.015 | 1.149 ± 0.014
m1 = 0.6981 | 1149.1 ± 0.2 | 1147.2 ± 0.2 | 1145.3 ± 0.2 | 1.524 ± 0.018 | 1.361 ± 0.016 | 1.224 ± 0.015
m1 = 0.7983 | 1169.6 ± 0.2 | 1167.7 ± 0.2 | 1165.8 ± 0.2 | 1.621 ± 0.019 | 1.447 ± 0.017 | 1.301 ± 0.016
m1 = 0.9256 | 1195.5 ± 0.2 | 1193.7 ± 0.2 | 1191.8 ± 0.2 | 1.745 ± 0.02 | 1.558 ± 0.018 | 1.402 ± 0.017
m1 = 1.201 | 1251.1 ± 0.3 | 1249.5 ± 0.3 | 1247.8 ± 0.3 | 2.02 ± 0.023 | 1.804 ± 0.021 | 1.624 ± 0.019
